{
  "source": "patent US20260183283A1",
  "about": "(priority 2022, published 2026)",
  "key": {"[1]": {"conditions": "oral gavage 10 mg/animal and 200 mg/animal; tablet or suspension"}, "[2]": {"conditions": "dog, in vivo"}, "[3]": {"test_system": "Pank1,2 neural knockout mice", "assay": "Open field test in Pank1,2 neural knockout mice", "format": "in vivo", "conditions": "22.5 ppm in chow from postnatal day 14; postnatal day 45", "experimental": "The mice were maintained at 72°±2° F., humidity 50%±10% and a 14-hour light/10-hour dark cycle with the dark cycle starting at 20:00 hrs. Water was supplied ad libitum. […] The mice were randomized into the treatment arms. […] Each animal was placed in the center of the arena under standard overhead lighting and the total distance traveled and the percentage of time in motion were recorded."}},
  "data": [
    {"smiles": "O=C(Cc1ccc(C2CC2)c(F)c1)N1CCN(c2ccc(Cl)nn2)CC1", "note": "[Compound (I), 1-(4-(6-chloropyridazin-3-yl)piperazin-1-yl)-2-(4-cyclopropyl-3-fluorophenyl)ethan-1-one]", "values": [
      {"measurement": "Dose proportionality of exposure as defined by AUC0-24", "setting": "[1]", "result": "dose proportional"},
      {"measurement": "Dose proportionality of exposure as defined by Cmax", "setting": "[1]", "result": "close to dose proportional"},
      {"measurement": "Accumulation after multiple doses", "setting": "[2]", "result": "Less than 2 fold"},
      {"measurement": "Movement in open field", "setting": "[3]", "result": "some improvement in movement"}
    ]}
  ]
}
